How the values were obtained:
[1] = system: kidney of black mice; assay: Kidney cystine concentration after CDME injection (CBP and BCA assays); format: in vivo, mouse
Description: Intracellular lysosomal free cystine was determined using a cystine binding protein (CBP) assay (Oshima et al, 1974 J. Biol. Chem., 249:6033-6039). CBP was procured from Riverside Scientific. The assay has a sensitivity of 0.1 μM. Total cell protein was determined by a modification of the Lowry method (Lowry O. et al 1951 J. Biol. Chem., 193:265-275). Statistical analyses were performed using paired t test for means with SSPS for Windows. Results are mean+/−1.0 SD (FIG. 3).
CDME was evaluated in mice for cystine generation in response to varying doses as follows: A stock solution of CDME in PBS was prepared having a concentrations of 1.8 g CDME/500 μL PBS. The stock solution was diluted to generate solutions for administration. 500 μL of diluted solutions were injected intraperitoneally into black mice (body mass ˜0.03 kg). All injections were performed in duplicate.
Following administration of the solutions of Table 6, the endogenous cystine concentrations in two organs (kidney and liver) were examined for the 6 mice, i.e., the CDME-injected mice as well as black, heterozygous, and wild-type control mice. The analysis was performed using the cystine binding protein CBP assay of Example 1 and the Bicinchoninic Acid BCA assay (Pierce Biotechnology) for total protein concentration.

[2] = system: MCF-7 (ER+); assay: Apoptosis in breast cancer cell lines, CaspACE assay with flow cytometry; format: cell-based, human; conditions: CDME 500 μM, 16 hours
Excerpt: (§1) The apoptotic effect of CDME was compared to that of tamoxifen using the CaspACE™ assay system (Promega) and conventional flow cytometry techniques.
(§2) All cell lines were obtained from the American Type Culture Collection, P.O. Box 1549, Manassas, Va., 20108 unless otherwise indicated. The cell lines studied were estrogen receptor-negative breast cancer cell lines MDA-MB-231 (ATCC Accession No. HTB-26) and MDA-MB-468 (ATCC Accession No. HTB-132) and estrogen receptor-positive breast cancer cell lines, MCF-7 (ATCC Accession No. HTB-22) and T-47D (ATCC Accession No. HTB-133).
(§3) All cell lines were grown on the bottom of 12-well flasks in Gibco RPMI-1640, until they reached the confluency of about 50%. After that, the medium was exchanged with DMEM (Sigma, D-5030), supplemented with 10% charcoal-treated FBS.
(§4) After four days (at confluency of about 75%), cells were treated by exposure to either CDME (500 μM) or tamoxifen (100 μM) or neither for 16 hours at 37° C. CaspACE™ assay analysis of the treated and control cells was performed as described in Example 2 and measured via flow cytometry. Note that the dosage of tamoxifen was a maximum positive control dose, higher than that normally administered for chemotherapy.

[3] = system: MDA-MB-468 (ER−); assay: as above; format: cell-based, human; conditions: CDME 500 μM, 16 hours
Excerpt: as §1, §2, §3, §4

[4] = system: T-47D (ER+); assay: as above; format: cell-based, human; conditions: CDME 500 μM, 16 hours
Excerpt: as §1, §2, §3, §4

[5] = system: MDA-MB-231 (ER−); assay: as above; format: cell-based, human; conditions: CDME 500 μM, 16 hours
Excerpt: as §1, §2, §3, §4

COC(=O)[C@@H](N)CSSC[C@H](N)C(=O)OC [CDME, cystine dimethyl ester]
Kidney Cystine Concentration ([1]; 10,000 mg CDME/kg intraperitoneally, Mouse #3): 97 nmol cystine/mg protein | increase in intralysosomal cystine ([1]; CDME-injected mice versus controls): ~100 fold | percent of apoptotic cells (±S.D.) [2]: 6.16 ± 1.80% | percent of apoptotic cells (±S.D.) [3]: 44.88 ± 13.52% | percent of apoptotic cells (±S.D.) [4]: 7.78 ± 4.19% | percent of apoptotic cells (±S.D.) [5]: 99.32 ± 0.22%

— patent US8222008B2, “Methods and compositions for treating cancer” (The Administrators of The Tulane Educational Fund, priority 2003, dated 2012)
